For orientation: Ki means a measure of affinity in units of concentration, obtained from inhibition or displacement.

Ki and Emax data for 29 molecules are collected here from patent US8716284B2, “Adamantyl diamide derivatives and uses of same” (H. Lundbeck A/S, priority 2008, dated 2014).

One assay addresses mGluR5 (Homo sapiens, UniProt P41594). Kind of assay: Radioligand binding assay, [3H]MPEP filtration binding to membrane homogenates. Conditions: 5 nM [3H]MPEP; Ki calculated from IC50 by Cheng-Prusoff. On the procedure:
Binding assays were performed as described in [J. A. O'Brien et al. Mol. Pharmacol., 2003, 64, 731-740] with slight modifications. Briefly, after thawing, the membrane homogenates were resuspended in 50 mM Tris-HCl, 0.9% NaCl binding buffer at pH 7.4 to a final assay concentration of 40 μg protein/well for [^3H]methoxy-5-(2-pyridinylethynyl)pyridine ([^3H] MPEP) (American Radiolabeled Chemicals, Inc., St. Louis, Mo.) filtration binding. Incubations included 5 nM [^3H] MPEP, membranes and either buffer or varying concentrations of compound. Samples were incubated for 60 min at room temperature with shaking. Non-specific binding was defined with 10 μM MPEP. After incubation, samples were filtered over a GF/C filter (presoaked in 0.25% polyethyleneimine (PEI)) and then washed 4 times using a Tomtec® Harvester 96® Mach III cell harvester (Tomtec, Hamden, Conn.) with 0.5 mL ice-cold 50 mM Tris-HCl (pH 7.4).
IC50 values were derived from the inhibition curve and Ki values were calculated according to the Cheng and Prusoff equation of Ki=IC50/(1+[L]/Kd) described in [Y. Cheng and W. H. Prusoff Biochem. Pharmacol. 1973, 22, 3099-3108] where [L] is the concentration of radioligand and Kd is its dissociation constant at the receptor, derived from the saturation isotherm.

Assay [1] deals with T1, rat metabotropic glutamate receptor 5 (mGluR5) (Rattus norvegicus, UniProt P31424).
T1 construct: expressed in transfected cells; host or cells: HEK 293
Kind of assay: Calcium mobilization assay (FLIPR) for negative or positive allosteric activity, HEK 293 cells. It counts as cell-based. The following applies: HEK293, negative allosteric modulation, inhibition of EC80 glutamate response; read-out: FLIPR maximum inhibition. The gist of the method:
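HEK 293 cells stably expressing rat mGluR5, Fluo-4 loaded in HEPES-buffered HBSS pH 7.4 with 0.1% BSA and probenecid. Compound added with EC20 (potentiation) or EC80 (inhibition) glutamate; fluorescence read over 3 min at room temperature. Basal-subtracted maximum fluorescence change fitted to Hill equation.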
Background: Calcium assays in cells follow changes in intracellular calcium, usually with a dye or a luminescent sensor.

T1 sequence (P31424 21-1171 isoform P31424-2 limits assumed): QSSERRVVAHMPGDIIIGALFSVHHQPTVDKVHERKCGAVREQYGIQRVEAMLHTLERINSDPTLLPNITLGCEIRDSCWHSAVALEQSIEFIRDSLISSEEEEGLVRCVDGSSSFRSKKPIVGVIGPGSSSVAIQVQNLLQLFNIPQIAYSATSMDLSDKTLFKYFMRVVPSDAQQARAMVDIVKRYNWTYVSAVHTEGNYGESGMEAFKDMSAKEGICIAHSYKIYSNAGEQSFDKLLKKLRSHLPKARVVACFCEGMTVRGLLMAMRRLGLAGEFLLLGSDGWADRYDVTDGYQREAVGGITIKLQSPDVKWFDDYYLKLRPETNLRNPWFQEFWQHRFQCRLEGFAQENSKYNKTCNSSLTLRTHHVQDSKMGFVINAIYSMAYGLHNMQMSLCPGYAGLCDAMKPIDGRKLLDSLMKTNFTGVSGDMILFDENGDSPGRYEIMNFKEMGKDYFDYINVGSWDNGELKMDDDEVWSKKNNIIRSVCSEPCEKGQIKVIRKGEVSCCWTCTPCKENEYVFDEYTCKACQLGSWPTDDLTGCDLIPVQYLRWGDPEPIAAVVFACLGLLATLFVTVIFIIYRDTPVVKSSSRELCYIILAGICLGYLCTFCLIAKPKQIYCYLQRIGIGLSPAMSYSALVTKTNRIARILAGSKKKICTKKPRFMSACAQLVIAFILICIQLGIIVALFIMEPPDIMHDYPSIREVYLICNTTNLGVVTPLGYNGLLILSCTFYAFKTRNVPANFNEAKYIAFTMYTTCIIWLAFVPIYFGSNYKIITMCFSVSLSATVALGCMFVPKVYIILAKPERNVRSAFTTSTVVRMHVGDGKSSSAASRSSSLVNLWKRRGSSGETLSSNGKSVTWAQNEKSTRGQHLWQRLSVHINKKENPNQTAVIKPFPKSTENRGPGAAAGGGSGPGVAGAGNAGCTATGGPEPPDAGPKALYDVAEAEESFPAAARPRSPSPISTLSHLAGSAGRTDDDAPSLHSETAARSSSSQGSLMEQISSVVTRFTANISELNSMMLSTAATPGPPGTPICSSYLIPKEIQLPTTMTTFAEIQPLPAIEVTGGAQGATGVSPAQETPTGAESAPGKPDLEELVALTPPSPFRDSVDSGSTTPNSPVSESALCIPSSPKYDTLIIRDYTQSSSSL
Chain of mGluR5 (P41594 21-1212): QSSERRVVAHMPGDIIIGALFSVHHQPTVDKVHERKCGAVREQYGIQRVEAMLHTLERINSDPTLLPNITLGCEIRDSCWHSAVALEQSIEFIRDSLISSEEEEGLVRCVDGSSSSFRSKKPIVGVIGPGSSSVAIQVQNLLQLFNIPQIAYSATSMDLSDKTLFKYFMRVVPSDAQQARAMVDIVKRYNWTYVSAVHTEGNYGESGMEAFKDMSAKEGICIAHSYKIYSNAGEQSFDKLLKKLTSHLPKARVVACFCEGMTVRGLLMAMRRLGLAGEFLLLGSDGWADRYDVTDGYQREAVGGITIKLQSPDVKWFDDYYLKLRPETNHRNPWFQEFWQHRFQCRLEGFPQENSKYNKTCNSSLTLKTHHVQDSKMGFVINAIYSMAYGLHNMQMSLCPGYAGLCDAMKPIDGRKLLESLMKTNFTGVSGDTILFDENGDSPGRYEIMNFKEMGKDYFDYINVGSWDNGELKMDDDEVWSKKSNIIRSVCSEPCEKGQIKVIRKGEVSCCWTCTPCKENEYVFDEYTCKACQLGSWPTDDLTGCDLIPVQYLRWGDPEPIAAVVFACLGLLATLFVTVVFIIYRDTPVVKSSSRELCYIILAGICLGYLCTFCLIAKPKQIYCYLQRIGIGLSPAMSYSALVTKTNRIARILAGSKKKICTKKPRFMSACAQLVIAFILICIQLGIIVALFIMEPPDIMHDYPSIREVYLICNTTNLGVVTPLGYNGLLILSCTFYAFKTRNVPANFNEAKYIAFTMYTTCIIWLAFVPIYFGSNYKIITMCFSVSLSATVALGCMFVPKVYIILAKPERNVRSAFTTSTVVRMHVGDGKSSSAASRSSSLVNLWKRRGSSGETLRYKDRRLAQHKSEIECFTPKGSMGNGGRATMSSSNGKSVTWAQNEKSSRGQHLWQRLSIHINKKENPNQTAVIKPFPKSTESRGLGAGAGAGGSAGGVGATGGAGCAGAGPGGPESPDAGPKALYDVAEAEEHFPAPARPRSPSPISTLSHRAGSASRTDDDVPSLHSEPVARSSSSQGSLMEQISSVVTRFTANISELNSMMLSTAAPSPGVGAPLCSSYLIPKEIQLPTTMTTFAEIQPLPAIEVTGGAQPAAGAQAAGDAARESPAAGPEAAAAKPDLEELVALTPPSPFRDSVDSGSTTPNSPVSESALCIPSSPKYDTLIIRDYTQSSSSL

As to `Cn1nc2ccccc2c1C(=O)NC12CC3CC(CC(NC(=O)c4ccccn4)(C3)C1)C2` [Example 79, 2-Methyl-2H-indazole-3-carboxylic acid {3-[(pyridine-2-carbonyl)-amino]-adamantan-1-yl}-amide], at mGluR5, the inhibitory constant (Ki) is 6 to 700 nM. As for `O=C(NC12CC3CC(C1)CC(NC(=O)c1nccs1)(C3)C2)c1ccccn1` [Example 74, Pyridine-2-carboxylic acid {3-[(thiazole-2-carbonyl)-amino]-adamantan-1-yl}-amide], the Ki on mGluR5 is 6 to 700 nM. Also, in assay [1], the Emax was 63 to 99%. For the molecule `Cc1cccc(C(=O)NC23CC4CC(CC(NC(=O)c5cccc(-c6ncccn6)c5)(C4)C2)C3)n1` [Example 44, 6-Methyl-pyridine-2-carboxylic acid [3-(3-pyrimidin-2-yl-benzoylamino)-adamantan-1-yl]-amide], the Ki at mGluR5 was 6 to 700 nM. In addition, the Emax in assay [1] lay within 63 to 99%. `O=C(NC12CC3CC(C1)CC(NC(=O)c1nccc(C(F)(F)F)n1)(C3)C2)c1ccncn1` [Example 196, 4-Trifluoromethyl-pyrimidine-2-carboxylic acid {3-[(pyrimidine-4-carbonyl)-amino]-adamantan-1-yl}-amide]: the Emax in assay [1] was in the range of 63 to 99%. Take `CC(=O)NCCNc1cccc(C(=O)NC23CC4CC(CC(NC(=O)c5cccc(F)c5)(C4)C2)C3)n1` [Example 244, 6-(2-Acetylamino-ethylamino)-pyridine-2-carboxylic acid [3-(3-fluoro-benzoylamino)-adamantan-1-yl]-amide]: the Emax in assay [1] lay in the range of 63 to 99%. Consider `Cc1cccc(C(=O)NC23CC4CC(CC(NC(=O)c5ccc(F)cn5)(C4)C2)C3)n1` [Example 137, 5-Fluoro-pyridine-2-carboxylic acid {3-[(6-methyl-pyridine-2-carbonyl)-amino]-adamantan-1-yl}-amide], for which the Emax in assay [1] is 70 to 99%.

Regarding `Cc1cncc(C(=O)NC23CC4CC(C2)CC(NC(=O)c2ccc5cnccc5n2)(C4)C3)n1` [Example 174, [1,6]Naphthyridine-2-carboxylic acid {3-[(6-methyl-pyrazine-2-carbonyl)-amino]-adamantan-1-yl}-amide], the Emax in assay [1] was 63 to 99%. The same measure, in the same setting: then `Cc1ccnc(C(=O)NC23CC4CC(CC(NC(=O)c5cccc(F)c5)(C4)C2)C3)n1` [Example 182, 4-Methyl-pyrimidine-2-carboxylic acid [3-(3-fluoro-benzoylamino)-adamantan-1-yl]-amide], with 63 to 99%; and `Cc1cccc(C(=O)NC23CC4CC(C2)CC(NC(=O)c2ccc5cccnc5n2)(C4)C3)n1` [Example 27, [1,8]Naphthyridine-2-carboxylic acid {3-[(6-methyl-pyridine-2-carbonyl)-amino]-adamantan-1-yl}-amide], with 63 to 99%. With `Cc1cc(C(=O)NC23CC4CC(CC(NC(=O)c5ccccn5)(C4)C2)C3)no1` [Example 73, Pyridine-2-carboxylic acid {3-[(5-methyl-isoxazole-3-carbonyl)-amino]-adamantan-1-yl}-amide], in assay [1], the Emax lay within 63 to 99%.

As for `Cc1cccc(C(=O)NC23CC4CC(CC(NC(=O)c5cccnc5)(C4)C2)C3)n1` [Example 115, 6-Methyl-pyridine-2-carboxylic acid {3-[(pyridine-3-carbonyl)-amino]-adamantan-1-yl}-amide], the Emax in assay [1] lay within 70 to 99%. Still for that read-out and setting: then `O=C(NC12CC3CC(C1)CC(NC(=O)c1cccc(-n4ccnc4)n1)(C3)C2)c1cccc(F)c1` [Example 255, 6-Imidazol-1-yl-pyridine-2-carboxylic acid [3-(3-fluoro-benzoylamino)-adamantan-1-yl]-amide], with 63 to 99%; and `Cc1cccc(C(=O)NC23CC4CC(CC(NC(=O)c5cccc(C#N)c5)(C4)C2)C3)n1` [Example 32, 6-Methyl-pyridine-2-carboxylic acid [3-(3-cyano-benzoylamino)-adamantan-1-yl]-amide], with 63 to 99%; and `Cc1cccc(C(=O)NC23CC4CC(C2)CC(NC(=O)c2cccc(CC#N)n2)(C4)C3)n1` [Example 25, 6-Cyanomethyl-pyridine-2-carboxylic acid {3-[(6-methyl-pyridine-2-carbonyl)-amino]-adamantan-1-yl}-amide], with 63 to 99%. Same read-out and setting: with `COCCN(C)c1cccc(C(=O)NC23CC4CC(CC(NC(=O)c5cccc(F)c5)(C4)C2)C3)n1` [Example 246, 6-[(2-Methoxy-ethyl)-methyl-amino]-pyridine-2-carboxylic acid [3-(3-fluoro-benzoylamino)-adamantan-1-yl]-amide] the figure was 63 to 99%; with `Cc1cccc(C(=O)NC23CC4CC(CC(NC(=O)c5cc(O)ccn5)(C4)C2)C3)n1` [Example 132, 6-Methyl-pyridine-2-carboxylic acid {3-[(4-hydroxy-pyridine-2-carbonyl)-amino]-adamantan-1-yl}-amide], 70 to 99%; with `Cc1cccc(C(=O)NC23CC4CC(C2)CC(NC(=O)c2cc(C)nc(C)n2)(C4)C3)n1` [Example 118, 2,6-Dimethyl-pyrimidine-4-carboxylic acid {3-[(6-methyl-pyridine-2-carbonyl)-amino]-adamantan-1-yl}-amide], 70 to 99%. Take `Cc1nccc(C(=O)NC23CC4CC(CC(NC(=O)c5ccc(F)cn5)(C4)C2)C3)n1` [Example 191, 2-Methyl-pyrimidine-4-carboxylic acid {3-[(5-fluoro-pyridine-2-carbonyl)-amino]-adamantan-1-yl}-amide]: in assay [1], the Emax lay in the range of 63 to 99%. The same measure, in the same setting: then `O=C(NC12CC3CC(C1)CC(NC(=O)c1cn4ccccc4n1)(C3)C2)c1ccccn1` [Example 88, Imidazo[1,2-a]pyridine-2-carboxylic acid {3-[(pyridine-2-carbonyl)-amino]-adamantan-1-yl}-amide], with 63 to 99%; and `COc1cccc(C(=O)NC23CC4CC(C2)CC(NC(=O)c2cccc(C)n2)(C4)C3)c1` [Example 43, 6-Methyl-pyridine-2-carboxylic acid [3-(3-methoxy-benzoylamino)-adamantan-1-yl]-amide], with 63 to 99%. The same measure, in the same setting: then `Cc1cccc(C(=O)NC23CC4CC(C2)CC(NC(=O)C2CC(F)(F)C2)(C4)C3)n1` [Example 47, 6-Methyl-pyridine-2-carboxylic acid {3-[(3,3-difluoro-cyclobutanecarbonyl)-amino]-adamantan-1-yl}-amide], with 63 to 99%; and `Cc1ccc(C(=O)NC23CC4CC(C2)CC(NC(=O)c2cccc(C)n2)(C4)C3)nc1` [Example 130, 6-Methyl-pyridine-2-carboxylic acid {3-[(5-methyl-pyridine-2-carbonyl)-amino]-adamantan-1-yl}-amide], with 70 to 99%. On the same count and under the same terms, with `CN1CCN(c2cccc(C(=O)NC34CC5CC(CC(NC(=O)c6cccc(F)c6)(C5)C3)C4)n2)CC1` [Example 216, 6-(4-Methyl-piperazin-1-yl)-pyridine-2-carboxylic acid [3-(3-fluoro-benzoylamino)-adamantan-1-yl]-amide] the figure was 63 to 99%; with `Cc1cccc(C(=O)NC23CC4CC(C2)CC(NC(=O)c2cc(C)n(C)n2)(C4)C3)n1` [Example 127, 6-Methyl-pyridine-2-carboxylic acid {3-[(1,5-dimethyl-1H-pyrazole-3-carbonyl)-amino]-adamantan-1-yl}-amide], 70 to 99%.

Regarding `CN(C)CCCNc1cccc(C(=O)NC23CC4CC(CC(NC(=O)c5ccccn5)(C4)C2)C3)n1` [Example 226, 6-(3-Dimethylamino-propylamino)-pyridine-2-carboxylic acid {3-[(pyridine-2-carbonyl)-amino]-adamantan-1-yl}-amide], in assay [1], the Emax fell in the range of 63 to 99%. On the same count and under the same terms, with `COc1cc(C(=O)NC23CC4CC(C2)CC(NC(=O)c2cncc(C)n2)(C4)C3)ccc1F` [Example 159, 6-Methyl-pyrazine-2-carboxylic acid [3-(4-fluoro-3-methoxy-benzoylamino)-adamantan-1-yl]-amide] the figure was 70 to 99%; with `CN(C)C1CCN(c2cccc(C(=O)NC34CC5CC(CC(NC(=O)c6ccccn6)(C5)C3)C4)n2)C1` (stereo not shown) [Example 199, 6-(3-Dimethylamino-pyrrolidin-1-yl)-pyridine-2-carboxylic acid {3-[(pyridine-2-carbonyl)-amino]-adamantan-1-yl}-amide], 63 to 99%; with `O=C(NC12CC3CC(C1)CC(NC(=O)c1cccc(N4CCC[C@@H]4CO)n1)(C3)C2)c1cccc(F)c1` [Example 250, 6-((R)-2-Hydroxymethyl-pyrrolidin-1-yl)-pyridine-2-carboxylic acid [3-(3-fluoro-benzoylamino)-adamantan-1-yl]-amide], 63 to 99%.

Turning to `Cc1cccc(C(=O)NC23CC4CC(C2)CC(NC(=O)c2csc(C)n2)(C4)C3)n1` [Example 136, 6-Methyl-pyridine-2-carboxylic acid {3-[(2-methyl-thiazole-4-carbonyl)-amino]-adamantan-1-yl}-amide], in assay [1], the Emax was in the range of 70 to 99%.
